Data: patent publication US10363284B2, “β-hairpin peptidomimetics” (POLYPHOR AG, priority 2012, dated 2019)
Positions of bridges follow the written chain, without caps; N, C: chain ends. Non-standard residues stand in square brackets, D forms with d. Residues, ends and D or L forms follow the SMILES beside them. dLys(iPr) = CC(C)NCCCC[C@@H](N)C(=O)O; Lys(iPr) = CC(C)NCCCC[C@H](N)C(=O)O; Orn(iPr) = CC(C)NCCC[C@H](N)C(=O)O; Ac3c = NC1(C(=O)O)CC1

Experiments:
[1] = Pharmacokinetic study (PK) after intravenous administration; type: in vivo, male CD-1 mice; details: mouse, i.v. 1 mg/kg; for AUC(0-inf) / Cmax / half-life / clearance / Vd: one-compartmental model; for clearance: read-out: CLiv (converted); for Vd: read-out: Vdis
Procedure: For the compounds of Ex. 1 and Ex. 2 pharmacokinetic studies after intravenous (i.v.) administration were performed.
30 grams (±20%) male CD-1 mice obtained from Charles River Laboratories Deutschland GmbH were used. The vehicle, phosphate buffered saline, was added to give a final concentration of 0.5 mg/mL of the compound. The volume was 2 mL/kg and the compound was injected to give a final intravenous dose of 1 mg/kg. Approximately 300-400 μL of blood was removed under light isoflurane anesthesia by cardiac puncture at predetermined time intervals (5, 15, 30 min and 1, 2, 3, 4, hours) and added to heparinized tubes. Plasma was removed from pelleted cells upon centrifugation and frozen at −80° C. prior to HPLC-MS analysis.
Aliquots of 50 μL each of mouse plasma of untreated aminals (“blank” mouse plasma) were spiked with known amounts of the compounds Ex. 1 and Ex. 2 in order to obtain 10 plasma calibration samples for each compound in the range 1-4000 ng/mL.
Aliquots of 50 μL each of mouse plasma from treated animals were used as plasma study samples.
All plasma samples were spiked with an appropriate internal standard and extracted with acetonitrile containing 2% formic acid. Supernatants were evaporated to dryness under nitrogen and the remaining solids reconstituted in water+0.2% formic acid/acetonitrile 95/5 (v/v).
Extracts were then analyzed by reverse-phase chromatography (Acquity HSS C18 SB, 100×2.1 mm, 1.8 μm column, Waters), using the following conditions: mobile phases: (A) water+0.1% formic acid/acetonitrile 95/5 (v/v), (B) aceto-nitrile/water+0.1% formic acid 95/5 (v/v), gradient: 1% (B) 0-0.1 min, 40% (B) 0.1-2.5. The detection and quantification was performed by mass spectrometry, with electrospray interface in positive mode and selective fragmentation of analytes (4000 Q Trap mass spectrometer, AB Sciex).
PK parameters were calculated by WinNonLin™ software version 5.3 (Pharsight-A Certara™ Company, Mountain View, Calif. 94041 USA) using a one-compartmental model analysis. PK parameters were determined by least-square fitting of the model to the experimental data.

in vitro = type: cell-based
Procedure: Namalwa cells (CXCR4 natively expressing non-adherent cells, ATCC CRL-1432) were cultured in RPM11640 plus 10% FBS, and pen/strept. HELA cells were maintained in RPMI1640 plus 10% FBS, pen/strept and 2 mM L-glutamine. Cos-7 cells were grown in DMEM medium with […] glucose supplemented with 10% FCS, pen/strept and 2 mM L-glutamine. All cell lines were grown at 37° C. at 5% CO2. Cell media, media supplements, PBS-buffer, HEPES, antibiotic/antimycotic, pen/strept, non essential amino acid, L-glutamine, β-mercaptoethanol and sera were purchased from Gibco (Pailsey, UK). All fine chemicals were supplied by Merck (Darmstadt, Germany).
The cytotoxicity of the peptides to HELA cells (Acc57) and COS-7 cells (CRL-1651) was determined using the MTT reduction assay (T. Mossman, J. Immunol. Meth. 1983, 65, 55-63; M. V. Berridge, A. S. Tan, Arch. Biochem. Biophys. 1993, 303, 474-482). Briefly, the method was as follows: 4000 HELA cells/well and 3400 COS-7 cells/well were seeded and grown in 96-well microtiter plates for 24 h at 37° C. at 5% CO2. Thereafter, time zero (Tz) was determined by MTT reduction (see below). The supernatant of the remaining wells was discarded, and fresh medium and compounds in serial dilutions (12.5, 25 and 50 μM, triplicates; 0 μM, blank) were pipetted into the wells. After incubation of the cells for 48 h at 37° C. at 5% CO2 the supernatant was discarded again and 100 μL MTT reagent (0.5 mg/mL in RPMI1640 and DMEM, respectively)/well was added. Following incubation at 37° C. for 2-4 h the media were aspirated and the cells were spiked (100 μL isopropanol/well). The absorbance of the solubilized formazan was measured at 595 nm (OD595peptide). For each concentration averages were calculated from triplicates. The percentage of growth was calculated as follows: (OD595peptide−OD595Tz)/(OD595blank−OD595Tz)×100%. The GI50 (Growth Inhibition) concentrations were calculated for each peptide by using a trend line function for the concentrations (50, 25, 12.5 and 0 μM), the corresponding percentages and the value 50, (=TREND (C50:C0,%50:%0, 50).

[2] = Drug loading calculations via maintenance dose rate; details: CLiv-mouse scaled by 0.127 (GFR human/mouse)
Procedure: The drug load for an implant comprising a peptide of the invention was calculated following the basic principles in pharmacokinetics (see also J. Gabrielsson, D. Weiner, “Pharmacokinetics and Pharmaco-dynamics Data Analysis: Concepts and Applications”, 4th edition, Swedish Pharmaceutical Press, Stockholm, Sweden, 2006) whereby the maintenance dose rate (rate of infusion, Rin) can be defined as the rate at which a drug is to be administered to reach a steady state of a certain dose in the plasma. The maintenance dose rate can be expressed using the correlation Rin [g/(h*kg)]=CLiv, [L/(h*kg)]×Css,eff [g/L], wherein CLiv, is the clearance (i.v.—admin.) and Css,eff the effective concentration of the drug in the plasma at steady state considering an efficacy margin A: Css,eff[g/L]=A×(IC50/fu)×MW [(Mol/L)*(g/Mol)]. Therefore, the total amount of a drug loaded into an implant providing for a constant effective concentration of that drug in the plasma for a certain period of time in a subject of a certain body weight can be calculated by applying the following correlation: Drugload [g/subject]=Rin [g/(h*kg)]×duration [h]×BW [kg/subject].
Further pre-conditions are an efficacy margin of A=3, a study duration of 672 h (28 days) and a body weight of a human subject of 70 kg. […]

[3] = male, CD-1, plasma, iv, read-out: Calc. Conc. (plasma)

| Structure (SMILES) | AUC(0-inf) ([1]; male, CD-1, plasma, iv) [ng·h/mL] | Cmax ([1]; male, CD-1, plasma, iv) [ng/mL] | half-life ([1]; male, CD-1, plasma, iv) [min] | clearance ([1]; male, CD-1, plasma, iv) [mL/min/kg] | Vd ([1]; male, CD-1, plasma, iv) [L/kg] | level at 0.083 h [1, 3] [ng/mL] | level at 0.25 h [1, 3] [ng/mL] | level at 0.5 h [1, 3] [ng/mL] | level at 1 h [1, 3] [ng/mL] | level at 2 h [1, 3] [ng/mL] | Calc. Conc. (plasma) ([1]; time 3 h) | Calc. Conc. (plasma) ([1]; time 4 h) | GI50 at 48 h (in vitro; African green monkey) [µM] | GI50 at 48 h (in vitro; human) [µM] | CLiv, human (allometric scaled) [2] [mL/h/kg] | level at 3 h ([1]; male, CD-1, plasma, iv, time 3 h, read-out: Calc. Conc. (plasma)) [ng/mL] | level at 4 h ([1]; male, CD-1, plasma, iv, time 4 h, read-out: Calc. Conc. (plasma)) [ng/mL] |
| --- | --- | --- | --- | --- | --- | --- | --- | --- | --- | --- | --- | --- | --- | --- | --- | --- | --- |
| CC(C)NCCCC[C@@H]1NC(=O)[C@H](CCC(N)=O)NC(=O)[C@H](Cc2ccc(O)cc2)NC(=O)[C@@H]2CSSC[C@H](NC(=O)[C@H](Cc3ccc(O)cc3)NC(=O)[C@H](Cc3c[nH]cn3)NC(=O)[C@H](Cc3ccc(O)cc3)NC(=O)[C@@H]3CCCN3C(=O)[C@@H](CCCCNC(C)C)NC1=O)C(=O)N[C@@H](CO)C(=O)N[C@@H](C)C(=O)N1CCC[C@@H]1C(=O)N[C@@H](CCCNC(C)C)C(=O)N[C@@H](CCCNC(=N)N)C(=O)N[C@@H](Cc1ccc(O)cc1)C(=O)N2 [Ex. 1, cyclo(-Tyr^1-His^2-Tyr^3-Cys^4-Ser^5-Ala^6-^DPro^7-Orn(iPr)^8-Arg^9-Tyr^10-Cys^11-Tyr^12-Gln^13-Lys(iPr)^14-^DLys(iPr)^15-Pro^16-), disulfide bond between Cys^4 and Cys^11] (cyclo(A[dP][Orn(iPr)]RYCYQ[Lys(iPr)][dLys(iPr)]PYHYCS); disulfide 6-15) | 1020 | 1880 | 24 | 16.4 | 0.532 | 1690 | 1050 | 749 | 385 | 61 | <LoQ | <LoQ | > 50 | > 42 | 125 |  |  |
| CC(C)NCCCC[C@@H]1NC(=O)[C@H](CCC(N)=O)NC(=O)[C@H](Cc2ccc(O)cc2)NC(=O)[C@@H]2CSSC[C@H](NC(=O)[C@H](Cc3ccc(O)cc3)NC(=O)[C@H](Cc3c[nH]cn3)NC(=O)[C@H](Cc3ccc(O)cc3)NC(=O)[C@@H]3CCCN3C(=O)[C@H]3CCCN3C1=O)C(=O)N[C@@H](CO)C(=O)NC1(CC1)C(=O)N1CCC[C@@H]1C(=O)N[C@@H](CCCNC(C)C)C(=O)N[C@@H](CCCNC(=N)N)C(=O)N[C@@H](Cc1ccc(O)cc1)C(=O)N2 [Ex. 2, cyclo(-Tyr^1-His^2-Tyr^3-Cys^4-Ser^5-Acc^6-^DPro^7-Orn(iPr)^8-Arg^9-Tyr^10-Cys^11-Tyr^12-Gln^13-Lys(iPr)^14-^DPro^15-Pro^16-), disulfide bond between Cys^4 and Cys^11] (cyclo(YHYCS[Ac3c][dP][Orn(iPr)]RYCYQ[Lys(iPr)][dP]P); disulfide 4-11) | 1460 | 1470 | 42 | 11.4 | 0.681 | 1250 | 1210 | 996 | 516 | 117 |  |  | > 50 | > 34 | 87 | 24 | 14 |
